# Results from patent US20230115945A1, “AMINOPYRIMIDINE COMPOUNDS” (TYRA BIOSCIENCES, INC., priority 2019, published 2023).
# Experiments:
# FGFR1 = biological target: T1, FGFR1 (Homo sapiens, UniProt P11362); assay: Kinase binding assay (Kd), FGFR1; conditions: 11-point 3-fold dilution, qPCR readout
# T1 construct: made in house; host or cells: E. coli host derived from BL21, infected with T7 phage
# How it was run: (§1)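 Kinases expressed as T7 phage fusions are mixed with ligand-coated magnetic beads and compound (0.9% DMSO), then shaken 1 h at room temperature. After washing, bound kinase is eluted with free ligand for 30 min and measured by qPCR; Kd is obtained by Hill-equation fitting.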
# FGFR2 = biological target: T2, FGFR2 (Homo sapiens, UniProt P21802); assay: Kinase binding assay (Kd), FGFR2; conditions: 11-point 3-fold dilution, qPCR readout
# T2 construct: made in house; host or cells: E. coli host derived from BL21, infected with T7 phage
# T2 sequence (P21802 22-821): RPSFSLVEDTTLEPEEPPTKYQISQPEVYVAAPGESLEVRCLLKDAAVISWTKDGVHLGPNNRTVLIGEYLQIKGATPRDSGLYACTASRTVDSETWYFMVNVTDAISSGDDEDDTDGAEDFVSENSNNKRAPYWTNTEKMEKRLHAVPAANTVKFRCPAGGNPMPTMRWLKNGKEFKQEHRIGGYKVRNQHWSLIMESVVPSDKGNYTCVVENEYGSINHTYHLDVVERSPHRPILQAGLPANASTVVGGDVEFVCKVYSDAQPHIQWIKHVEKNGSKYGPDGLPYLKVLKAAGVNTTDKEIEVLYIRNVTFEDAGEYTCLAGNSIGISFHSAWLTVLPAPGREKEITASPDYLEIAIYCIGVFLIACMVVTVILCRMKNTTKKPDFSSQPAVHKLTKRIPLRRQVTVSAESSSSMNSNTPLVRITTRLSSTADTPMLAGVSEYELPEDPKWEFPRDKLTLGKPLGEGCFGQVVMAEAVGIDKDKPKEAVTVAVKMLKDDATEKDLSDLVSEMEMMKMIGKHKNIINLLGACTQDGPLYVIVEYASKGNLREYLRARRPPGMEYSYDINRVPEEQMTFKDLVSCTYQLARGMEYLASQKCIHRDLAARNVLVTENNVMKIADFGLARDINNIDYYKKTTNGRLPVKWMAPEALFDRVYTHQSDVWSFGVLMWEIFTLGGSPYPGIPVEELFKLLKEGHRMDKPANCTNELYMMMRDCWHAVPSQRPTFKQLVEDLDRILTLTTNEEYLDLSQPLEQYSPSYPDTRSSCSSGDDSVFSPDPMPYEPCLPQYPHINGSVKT
# How it was run: as §1
# FGFR3 = biological target: T3, FGFR3 (Homo sapiens, UniProt P22607); assay: Kinase binding assay (Kd), FGFR3; conditions: 11-point 3-fold dilution, qPCR readout
# T3 construct: made in house; host or cells: E. coli host derived from BL21, infected with T7 phage
# T3 sequence (P22607 23-806): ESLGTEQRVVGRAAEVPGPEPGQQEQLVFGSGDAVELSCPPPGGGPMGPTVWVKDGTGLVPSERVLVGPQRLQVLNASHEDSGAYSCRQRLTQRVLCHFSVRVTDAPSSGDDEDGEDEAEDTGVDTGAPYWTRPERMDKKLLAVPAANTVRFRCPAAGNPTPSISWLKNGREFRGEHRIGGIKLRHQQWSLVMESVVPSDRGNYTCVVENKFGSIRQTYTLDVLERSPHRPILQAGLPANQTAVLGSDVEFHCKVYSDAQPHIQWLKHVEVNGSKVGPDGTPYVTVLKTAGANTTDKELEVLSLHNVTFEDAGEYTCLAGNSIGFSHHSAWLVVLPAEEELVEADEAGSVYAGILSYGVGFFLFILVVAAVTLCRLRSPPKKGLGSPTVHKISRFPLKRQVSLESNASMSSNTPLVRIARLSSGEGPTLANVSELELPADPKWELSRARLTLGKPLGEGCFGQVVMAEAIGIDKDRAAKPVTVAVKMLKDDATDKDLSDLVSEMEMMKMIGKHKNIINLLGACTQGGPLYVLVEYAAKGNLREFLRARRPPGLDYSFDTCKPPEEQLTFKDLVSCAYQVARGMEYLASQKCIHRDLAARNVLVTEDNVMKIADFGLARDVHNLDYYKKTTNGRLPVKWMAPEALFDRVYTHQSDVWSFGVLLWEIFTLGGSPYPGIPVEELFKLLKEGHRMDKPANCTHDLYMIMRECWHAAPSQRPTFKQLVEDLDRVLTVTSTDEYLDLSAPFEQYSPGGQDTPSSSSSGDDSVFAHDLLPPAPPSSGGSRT
# How it was run: as §1
# FGFR3 (V555M) = biological target: T4, FGFR3 (V555M) (Homo sapiens, UniProt P22607, V555M); assay: Kinase binding assay (Kd), FGFR3 (V555M); conditions: 11-point 3-fold dilution, qPCR readout
# T4 construct: made in house; host or cells: E. coli host derived from BL21, infected with T7 phage
# T4 sequence (P22607 23-806 V555M): as the sequence (P22607 23-806) above, with V533M counted along it
# How it was run: as §1
# FGFR4 = biological target: T5, FGFR4 (Homo sapiens, UniProt P22455); assay: Kinase binding assay (Kd), FGFR4; conditions: 11-point 3-fold dilution, qPCR readout
# T5 construct: made in house; host or cells: E. coli host derived from BL21, infected with T7 phage
# T5 sequence (P22455 22-802): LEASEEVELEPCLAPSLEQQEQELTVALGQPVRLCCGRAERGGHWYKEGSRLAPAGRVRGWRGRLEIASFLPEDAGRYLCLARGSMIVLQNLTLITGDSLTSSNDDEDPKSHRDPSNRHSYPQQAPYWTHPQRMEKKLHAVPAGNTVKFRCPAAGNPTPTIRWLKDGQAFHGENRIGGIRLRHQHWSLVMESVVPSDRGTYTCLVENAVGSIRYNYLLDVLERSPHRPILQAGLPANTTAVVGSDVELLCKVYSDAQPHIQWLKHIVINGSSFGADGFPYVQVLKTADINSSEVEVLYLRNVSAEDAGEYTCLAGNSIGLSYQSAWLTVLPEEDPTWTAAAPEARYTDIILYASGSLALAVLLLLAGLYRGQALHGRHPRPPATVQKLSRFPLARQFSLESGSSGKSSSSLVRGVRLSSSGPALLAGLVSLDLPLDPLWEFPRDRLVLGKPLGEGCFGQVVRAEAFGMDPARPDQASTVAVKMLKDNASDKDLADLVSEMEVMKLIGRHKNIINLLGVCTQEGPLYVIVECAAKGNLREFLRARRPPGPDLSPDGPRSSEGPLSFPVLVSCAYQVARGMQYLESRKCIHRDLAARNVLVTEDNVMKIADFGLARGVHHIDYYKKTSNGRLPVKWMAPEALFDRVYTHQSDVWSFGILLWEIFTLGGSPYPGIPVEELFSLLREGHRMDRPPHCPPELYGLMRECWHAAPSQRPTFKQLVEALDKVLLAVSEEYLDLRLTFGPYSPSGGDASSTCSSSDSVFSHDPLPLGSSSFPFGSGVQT
# How it was run: as §1
# [1] = biological target: T6, FGFR3-BAIAP2L1 Ba/F3 cells (Homo sapiens, UniProt P22607); assay: Ba/F3 cell viability assay, FGFR3; type: cell-based; conditions: FGFR3-BAIAP2L1 fusion Ba/F3, 48 hours, Cell Titer-Glo 2.0; read-out: Ba/F3 Cells FGFR3 (IC50 nM)
# T6 construct: Ba/F3 FGFR3; FGFR3--BAIAP2L1 fusion; Advanced Cellular Dynamics, (Seattle, WA); fused on or other part: Q9UHR4 (BAR/IMD domain-containing adapter protein 2-like 1)
# T6 sequence (P22607 whole entry, change not shown, the tested form may be a part): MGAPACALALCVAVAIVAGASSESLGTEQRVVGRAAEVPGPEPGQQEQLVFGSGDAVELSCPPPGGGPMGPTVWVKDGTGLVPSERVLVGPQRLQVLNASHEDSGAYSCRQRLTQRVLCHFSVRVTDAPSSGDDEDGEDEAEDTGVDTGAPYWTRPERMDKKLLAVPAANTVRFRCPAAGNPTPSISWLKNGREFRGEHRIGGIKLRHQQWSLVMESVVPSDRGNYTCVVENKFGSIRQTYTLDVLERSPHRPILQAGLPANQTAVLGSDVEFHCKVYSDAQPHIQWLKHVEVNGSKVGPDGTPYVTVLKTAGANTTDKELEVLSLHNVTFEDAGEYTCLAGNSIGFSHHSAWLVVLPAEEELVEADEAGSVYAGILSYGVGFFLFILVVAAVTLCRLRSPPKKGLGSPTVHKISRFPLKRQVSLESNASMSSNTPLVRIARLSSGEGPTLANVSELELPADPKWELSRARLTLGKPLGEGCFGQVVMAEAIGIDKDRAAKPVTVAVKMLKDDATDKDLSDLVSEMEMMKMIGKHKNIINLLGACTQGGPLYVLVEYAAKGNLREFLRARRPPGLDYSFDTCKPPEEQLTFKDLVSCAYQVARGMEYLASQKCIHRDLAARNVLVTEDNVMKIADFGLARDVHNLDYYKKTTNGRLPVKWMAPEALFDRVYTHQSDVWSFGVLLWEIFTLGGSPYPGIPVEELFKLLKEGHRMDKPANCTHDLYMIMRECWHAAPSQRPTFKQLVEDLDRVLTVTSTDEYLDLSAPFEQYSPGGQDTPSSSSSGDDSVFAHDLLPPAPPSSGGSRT
# Text: (§2) Experimental Purpose: Recombinant kinase fusions are transduced into parental Ba/F3, which becomes dependent upon this constitutive kinase activity for IL3-independent survival. Inhibition of kinase activity leads to cell death, which is monitored using CellTiter-Glo® 2.0 (Promega) which measures intracellular ATP concentration that in turn serves as a marker for viability. FGFR1-BCR Ba/F3 and FGFR3-BAIAP2L1 Ba/F3 were obtained from Advanced Cellular Dynamics (Seattle, Wash.)
# (§3) Cell Viability Assay Procedure: Cell Titer-Glo® 2.0 Luminescent cell viability assay reagent was purchased from Promega (Madison, Wis.). FGFR1-BCR Ba/F3 and FGFR3-BAIAP2L1 Ba/F3 cells were cultured in RPMI1640 media supplemented with 10% fetal bovine serum. Cultures were maintained at 37° C. in a humidified atmosphere of 5% CO2 and 95% air.
# (§4) Cells were plated in 96-well clear bottom/white plates (Corning #3903) at 10,000 cells/well in 100 μl of media, incubated overnight. The next day, test compound DMSO stock solutions were made at 10 mM and 2 μM final concentration. Compounds were then added to cells in a 9-dose, 10-fold dilution series starting at 30 μM with an HP 300e Digital Dispenser (each dose was applied in triplicate). DMSO was backfilled to each well up to 301 nL total volume of test compound+DMSO, and a total of 301 nL DMSO was added to a control/no test compound well in triplicate. The cells in cell culture plates were incubated with the compounds at 37° C. and 5% CO2 for 48 hours. Then 50 μl of Cell Titer Glo 2.0 reagent was added to each well of the cell culture plates. The contents were covered from light and mixed on an orbital shaker at room temperature for 10 min. Luminescence was recorded by a Synergy H1 Microplate Reader (Biotek, Winooski, Vt.). Cells were assessed as a percentage of DMSO only treated control cells. Curves were plotted and IC50 values were calculated using the GraphPad Prism 8 program based on a sigmoidal dose-response equation (4 parameter).
# FGFR1-BCR Ba/F3 cells = biological target: T7, FGFR1-BCR Ba/F3 cells (Homo sapiens, UniProt P11362); assay: Ba/F3 cell viability assay, FGFR1; type: cell-based; conditions: FGFR1-BCR Ba/F3, 48 hours, Cell Titer-Glo 2.0; read-out: Ba/F3 Cells FGFR1 (IC50 nM)
# T7 construct: Ba/F3 FGFR1; FGFR1-BCR; Advanced Cellular Dynamics, (Seattle, WA); fused on or other part: P11274 (Breakpoint cluster region protein)
# T7 sequence (P11362 whole entry, change not shown, the tested form may be a part): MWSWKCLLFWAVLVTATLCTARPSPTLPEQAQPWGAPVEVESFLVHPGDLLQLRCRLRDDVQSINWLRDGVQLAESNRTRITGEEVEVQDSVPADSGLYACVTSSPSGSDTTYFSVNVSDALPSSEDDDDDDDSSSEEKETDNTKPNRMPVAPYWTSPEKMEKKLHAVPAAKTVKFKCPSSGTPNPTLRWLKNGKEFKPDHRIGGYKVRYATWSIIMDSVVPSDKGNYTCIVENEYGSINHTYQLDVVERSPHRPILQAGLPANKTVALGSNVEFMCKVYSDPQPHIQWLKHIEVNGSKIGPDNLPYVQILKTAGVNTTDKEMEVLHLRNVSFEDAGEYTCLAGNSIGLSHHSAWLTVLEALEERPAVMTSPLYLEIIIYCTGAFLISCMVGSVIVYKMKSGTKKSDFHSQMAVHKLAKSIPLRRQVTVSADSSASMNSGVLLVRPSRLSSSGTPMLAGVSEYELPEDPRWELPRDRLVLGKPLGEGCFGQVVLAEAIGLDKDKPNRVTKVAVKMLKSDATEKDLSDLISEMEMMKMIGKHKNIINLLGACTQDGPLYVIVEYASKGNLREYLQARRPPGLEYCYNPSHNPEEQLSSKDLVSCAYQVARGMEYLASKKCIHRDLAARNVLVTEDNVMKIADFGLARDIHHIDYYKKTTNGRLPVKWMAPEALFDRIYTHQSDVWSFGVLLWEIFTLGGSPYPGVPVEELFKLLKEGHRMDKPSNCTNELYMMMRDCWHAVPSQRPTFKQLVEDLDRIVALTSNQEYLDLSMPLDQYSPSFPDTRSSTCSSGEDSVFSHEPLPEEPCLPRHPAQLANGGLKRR
# Text: as §2, §3, §4
# [2] = tested on: SNU-16 cells (Gastric Carcinoma, FGFR2 amplification); assay: Cancer cell line cell viability assay, SNU-16; type: cell-based; conditions: Homo sapiens, 72 hours, Cell Titer-Glo 2.0, read-out: Cancer Cell Viability Assays SNU-16 (IC50 nM)
# Text: (§5) [table] To detect the change of intracellular ATP by Cell Titer-Glo® and to evaluate the inhibitory effect of the compounds on cancer cell lines by determining the in vitro IC50 value of the compounds. Cell Titer-Glo® 2.0 Luminescent cell viability assay reagent was purchased from Promega (Madison, Wis.). RT112/84, SNU-16, and KG-1 cell lines were purchased from American Type Culture Collection (Manassas, Va.). UM-UC-14 cell line was purchased from Sigma (St. Louis, Mo.). RT112/84, UM-UC-14, SNU-16, and KG-1 cells were cultured in RPMI1640 media supplemented with 10% fetal bovine serum. Cultures were maintained at 37° C. in a humidified atmosphere of 5% CO2 and 95% air. Cell Viability Assay Procedure: Cells were plated in 96-well clear bottom/white plates (Corning #3903) at 10,000 cells/well in 100 μl of media, incubated overnight. The next day, test compound DMSO stock solutions were made at 10 mM and 2 μM final concentration. Compounds were then added to cells in a 9-dose, […] dilution series starting at 30 μM with an HP 300e Digital Dispenser (each dose was applied in triplicate). DMSO was backfilled to each well up to 301 nL total volume of test compound+DMSO, and a total of 301 nL DMSO was added to a control/no test compound well in triplicate. The cells in cell culture plates were incubated with the compounds at 37° C. and 5% CO2 for 72 hours. Then 50 μl of Cell Titer Glo 2.0 reagent was added to each well of the cell culture plates. The contents were covered from light and mixed on an orbital shaker at room temperature for 10 min. Luminescence was recorded by a Synergy H1 Microplate Reader (Biotek, Winooski, Vt.). Cells were assessed as a percentage of DMSO only treated control cells. Curves were plotted and IC50 values were calculated using the GraphPad Prism 8 program based on a sigmoidal dose-response equation (4 parameter).
# [3] = tested on: RT112/84 cells (Bladder Cancer, FGFR3-TACC3 fusion); assay: Cancer cell line cell viability assay, RT112/84; type: cell-based; conditions: Homo sapiens, 72 hours, Cell Titer-Glo 2.0, read-out: Cancer Cell Viability Assays RT112/84 (IC50 nM)
# Text: as §5
# T1 sequence (P11362 22-822): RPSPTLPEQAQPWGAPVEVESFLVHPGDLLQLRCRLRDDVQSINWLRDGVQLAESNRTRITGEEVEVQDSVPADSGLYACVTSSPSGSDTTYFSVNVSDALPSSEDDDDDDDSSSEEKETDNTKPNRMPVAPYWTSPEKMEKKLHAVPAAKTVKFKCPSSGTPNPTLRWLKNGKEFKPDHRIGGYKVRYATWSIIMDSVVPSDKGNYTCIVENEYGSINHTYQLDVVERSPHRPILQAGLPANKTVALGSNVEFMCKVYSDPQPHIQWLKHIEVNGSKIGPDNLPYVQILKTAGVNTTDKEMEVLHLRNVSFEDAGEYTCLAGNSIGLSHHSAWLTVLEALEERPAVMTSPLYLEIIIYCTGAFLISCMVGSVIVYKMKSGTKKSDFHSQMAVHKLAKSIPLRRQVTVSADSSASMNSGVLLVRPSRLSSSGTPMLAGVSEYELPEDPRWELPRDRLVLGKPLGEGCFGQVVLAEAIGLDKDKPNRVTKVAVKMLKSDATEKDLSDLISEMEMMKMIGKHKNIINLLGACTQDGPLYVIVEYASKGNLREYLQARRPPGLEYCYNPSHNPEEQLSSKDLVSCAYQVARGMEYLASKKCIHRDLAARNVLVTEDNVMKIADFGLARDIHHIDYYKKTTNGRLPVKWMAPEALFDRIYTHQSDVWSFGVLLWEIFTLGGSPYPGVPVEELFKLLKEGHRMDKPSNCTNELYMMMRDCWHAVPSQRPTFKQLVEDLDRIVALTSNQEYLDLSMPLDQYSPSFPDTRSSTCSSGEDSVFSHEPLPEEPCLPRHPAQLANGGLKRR
SMILES,Kd (FGFR1) [nM],Kd (FGFR2) [nM],Kd (FGFR3) [nM],Kd (FGFR3 (V555M)) [nM],Kd (FGFR4) [nM],IC50 [2] [nM],IC50 [3] [nM],GI50 [1] [nM],GI50 (FGFR1-BCR Ba/F3 cells) [nM]
"Cc1cnc(Nc2ccc(N=S(C)(C)=O)c(OCCN3CCOCC3)c2)nc1-c1c[nH]c2ccccc12 [Example 27, N-[4-[[dimethyl(oxo)-λ^6-sulfanylidene]amino]-3-(2-morpholinoethoxy)phenyl]-4-(1H-indol-3-yl)-5-methyl-pyrimidin-2-amine]",2,1,2,–,110,16,43,–,11
"COc1cc(Nc2ncc(C)c(-c3c[nH]c4c(C)cccc34)n2)ccc1N=S(C)(C)=O [Example 31, N-[4-[[dimethyl(oxo)-λ^6-sulfanylidene]amino]-3-methoxy-phenyl]-5-methyl-4-(7-methyl-1H-indol-3-yl)pyrimidin-2-amine]",1,3,5,0.5,62,5,23,40,2
"C=CC(=O)Nc1cc2ccn(-c3nc(Nc4ccc(N=S(C)(C)=O)cc4)ncc3Cl)c2cc1C [Example 85, N-[1-[5-chloro-2-[4-[[dimethyl(oxo)-λ^6-sulfanylidene]amino]anilino]-pyrimidin-4-yl]-6-methyl-indol-5-yl]prop-2-enamide]",330,89,180,16,2300,–,–,459,171
"C=CC(=O)Nc1ccc2c(-c3nc(Nc4ccc(N=S(C)(C)=O)c(F)c4)ncc3Cl)cn(C)c2c1 [Example 93, N-[3-[5-Chloro-2-[4-[[dimethyl(oxo)-λ^6-sulfanylidene]amino]-3-fluoro-anilino]pyrimidin-4-yl]-1-methyl-indol-6-yl]prop-2-enamide]",–,–,–,–,–,–,–,14,1
"C=CC(=O)Nc1ccc2c(-c3nc(Nc4ccc(N=S(C)(C)=O)nc4)ncc3Cl)cn(C)c2c1 [Example 94, N-[3-[5-Chloro-2-[[6-[[dimethyl(oxo)-λ^6-sulfanylidene]amino]-3-pyridyl]amino]pyrimidin-4-yl]-1-methyl-indol-6-yl]prop-2-enamide]",–,–,–,–,–,–,–,23,4

# More lines, main results first:
Kd (FGFR1) [nM],Kd (FGFR2) [nM],Kd (FGFR3) [nM],Kd (FGFR3 (V555M)) [nM],Kd (FGFR4) [nM],IC50 [2] [nM],IC50 [3] [nM],SMILES,GI50 [1] [nM],GI50 (FGFR1-BCR Ba/F3 cells) [nM]
350,3300,370,57,57,108,153,"Cc1cnc(Nc2ccc(N=S(C)(C)=O)cc2)nc1-c1c[nH]c2ccccc12 [Example 11, N-[4-[[dimethyl(oxo)-λ^6-sulfanylidene]amino]phenyl]-4-(1H-indol-3-yl)-5-methyl-pyrimidin-2-amine]",15,115
42,2,10,1,91,173,111,"COc1cc(Nc2ncc(C)c(-c3c[nH]c4ccccc34)n2)ccc1N=S(C)(C)=O [Example 26, N-[4-[[dimethyl(oxo)-λ^6-sulfanylidene]amino]-3-methoxy-phenyl]-4-(1H-indol-3-yl)-5-methyl-pyrimidin-2-amine]",15,75
